Like-named read-outs stand apart in the source and are kept apart here.
Assays:
[1] = test system: Oligodendrocyte progenitor cells (OPCs); experiment: In vitro OPC differentiation assay, GPR17 expression (immunocytochemistry); settings: 72 hours, fold change over vehicle; for GPR17 Fold Induction (Over Vehicle; 3 μM): 3 μM (10× concentration, final 0.3 μM); for GPR17 Fold Induction (Over Vehicle; 5 μM): 5 μM (10× concentration, final 0.5 μM)
Description: To assess the effects of the PDGFRα inhibitors on OPC differentiation, primary OPCs were cultured and exposed to compounds. The number of newly generated oligodendrocytes was assessed by monitoring GPR17 expression. GPR17 is preferentially expressed in actively differentiating oligodendrocytes, allowing them to be distinguished from precursors and more differentiated oligodendrocytes.
Cortices from postnatal day (P) 1-3 rats were dissected and collected into ice cold Hank's Balanced Salt Solution (HBSS). […] Briefly, the cortical cell suspension was centrifuged and washed with buffer (0.5% BSA in PBS) and labeled with Anti-A2B^5 MicroBeads (10 μL beads per 1×10^7 cells) for 15 minutes at 4° C. Following the incubation, cells were washed once with BSA buffer to remove unlabeled beads. A2B^5 positive cells were eluted on the column using the AutoMACS® (Miltenyi, as per manufacturer's protocol using “Possel-s” program). Eluted cells were further washed twice with OPC growth media. Cell counts were performed using Countess III cell counter (ThermoFisher; AMQAX2000) and cells were plated.
The plates were allowed to sit at room temperature for 15 minutes to ensure proper dispersion of cells in a well. The plates were then transferred to the incubator (37° C.; 5% CO2).
Cells were then incubated for 72 hours at 37° C., 5% CO2 before immunostaining for GPR17 marker expression.
Following 72 hours in culture, cells were fixed with 4% paraformaldehyde for 15 minutes and then washed three times in Dulbecco's phosphate buffered saline (DPBS). Prior to immunostaining, cells were treated with a blocking solution (10% normal goat serum containing 1% BSA and 0.1% Triton® X-100 in DPBS) for 15 minutes at room temperature. Primary antibody (anti-GPR17 at 1:2000; Origene TA811615) was applied to cells overnight at 4° C. in incubation solution containing 1% normal goat serum, 1% BSA, and 0.1% Triton X-100 in DPBS. […] The secondary antibody was applied in incubation solution for 2 hours at room temperature, protected from light.
The number of differentiated GPR17+ cells was normalized to the total nuclei count and percent differentiated GPR17+ cells were reported. Statistical analysis was done using one-way ANOVA with multiple comparisons and post-hoc Tukey test in GraphPad Prism (GraphPad Software).

[2] = test system: Oligodendrocyte progenitor cells (OPCs); experiment: In vitro OPC differentiation assay, MBP expression (immunocytochemistry); settings: 72 hours of treatment; fold change over vehicle
Description: Cortices from postnatal day (P) 1-3 rats were dissected and collected into ice cold Hank's Balanced Salt Solution (HBSS). […] Briefly, the cortical cell suspension was centrifuged and washed with buffer (0.5% BSA in PBS) and labeled with Anti-A2B5 MicroBeads (10 μL beads per 1×10^7 cells) for 15 minutes at 4° C. Following the incubation, cells were washed once with BSA buffer to remove unlabeled beads. A2B^5 positive cells were eluted on the column using the AutoMACS® (Miltenyi, as per manufacturer's protocol using “possel-s” program). Eluted cells were further washed twice with OPC growth media. Cell count was performed using Countess III cell counter (ThermoFisher; AMQAX2000) and cells were plated.
A2B5+ OPCs were plated in poly-d-lysine (PDL) coated T75 flask at a density of ˜3 million cells per flask. […] TrypLE was normalized by adding 10 mL growth media and cells were centrifuged at 1400 rpm for 10 minutes. […] The plates were allowed to sit at room temperature for 15 minutes to ensure proper dispersion of cells in a well. The plates were then transferred to the incubator (37° C.; 5% CO2).
Cells were then incubated for 72 hours at 37° C., 5% CO2 before immunostaining for MBP marker expression.
Following 72 hours of treatment, cells were fixed with 4% paraformaldehyde for 15 minutes then washed three times in DPBS. Prior to staining, cells were blocked for 15 minutes in 10% normal goat serum containing 1% BSA and 0.1% Triton X-100 in DPBS. Primary antibody (MBP @ 1:2000; Abcam AB7349) was applied to cells overnight at 4° C. in incubation solution containing 1% normal goat serum, 1% BSA, and 0.1% Triton X-100 in DPBS.
The number of differentiated MBP+ cells was normalized to the total nuclei count and percent differentiated MBP+ cells were reported.

[3] = test system: GPR17+ cells (newly differentiated oligodendrocytes); experiment: In vivo OPC differentiation, GPR17+ cells in brain
Description: The ability of newly constructed compounds to drive OPC differentiation and myelination in vivo was tested. The ability of these compounds to drive OPC differentiation in vivo was tested using GPR17 as an indicator of newly differentiated oligodendrocytes.
Compounds were delivered PO or IP either QD or BID. Mice were dosed once, transiently, or continuously through the treatment period, which ranged from 1-3 days.
Mice were euthanized by isoflurane exposure and transcardially perfused with 14 mL of PBS (Sigma Cat #P4417-50TAB) followed by 22 mL of 3.2% paraformaldehyde in PBS. The brains were removed and postfixed for a minimum of 24 hours in 20 mL of 3.2% paraformaldehyde.
50-micron floating sections were cut using a Leica VT1200S vibratome. Every 24th section, extending through the antero-posterior extent of the brain, was stained. The selected brain sections were washed three times in PBS for 3 minutes each. The floating sections were incubated in the primary antibodies (see Table 10, below) diluted in blocking solution overnight at room temperature on a shaker. […] The next day, the sections were again washed three times in PBS for 3 minutes each and then incubated in the secondary antibodies diluted in blocking solution for 2 hours at room temperature on a shaker. After incubation, the sections were washed three times in PBS for 3 minutes each and mounted on a slide to be imaged using the Olympus Slide Scanner VS200.
The images were analyzed using a custom protocol developed using Visiopharm software to count GPR17+ cells. Cells were considered GPR17+ if they contained an Olig2 positive nucleus, and intense GPR 17 staining that filled their processes. Statistical analysis was done using one-way ANOVA with multiple comparison in GraphPad Prism software.

PDGFRα = PDGFRα (Homo sapiens (Human), UniProt P16234); experiment: PDGFRα kinase enzyme assay (Promega PDGFRα Kinase Enzyme System, ADP-Glo); assay type: biochemical; settings: 150 uM ATP
PDGFRα, sequence (P16234 24-1089): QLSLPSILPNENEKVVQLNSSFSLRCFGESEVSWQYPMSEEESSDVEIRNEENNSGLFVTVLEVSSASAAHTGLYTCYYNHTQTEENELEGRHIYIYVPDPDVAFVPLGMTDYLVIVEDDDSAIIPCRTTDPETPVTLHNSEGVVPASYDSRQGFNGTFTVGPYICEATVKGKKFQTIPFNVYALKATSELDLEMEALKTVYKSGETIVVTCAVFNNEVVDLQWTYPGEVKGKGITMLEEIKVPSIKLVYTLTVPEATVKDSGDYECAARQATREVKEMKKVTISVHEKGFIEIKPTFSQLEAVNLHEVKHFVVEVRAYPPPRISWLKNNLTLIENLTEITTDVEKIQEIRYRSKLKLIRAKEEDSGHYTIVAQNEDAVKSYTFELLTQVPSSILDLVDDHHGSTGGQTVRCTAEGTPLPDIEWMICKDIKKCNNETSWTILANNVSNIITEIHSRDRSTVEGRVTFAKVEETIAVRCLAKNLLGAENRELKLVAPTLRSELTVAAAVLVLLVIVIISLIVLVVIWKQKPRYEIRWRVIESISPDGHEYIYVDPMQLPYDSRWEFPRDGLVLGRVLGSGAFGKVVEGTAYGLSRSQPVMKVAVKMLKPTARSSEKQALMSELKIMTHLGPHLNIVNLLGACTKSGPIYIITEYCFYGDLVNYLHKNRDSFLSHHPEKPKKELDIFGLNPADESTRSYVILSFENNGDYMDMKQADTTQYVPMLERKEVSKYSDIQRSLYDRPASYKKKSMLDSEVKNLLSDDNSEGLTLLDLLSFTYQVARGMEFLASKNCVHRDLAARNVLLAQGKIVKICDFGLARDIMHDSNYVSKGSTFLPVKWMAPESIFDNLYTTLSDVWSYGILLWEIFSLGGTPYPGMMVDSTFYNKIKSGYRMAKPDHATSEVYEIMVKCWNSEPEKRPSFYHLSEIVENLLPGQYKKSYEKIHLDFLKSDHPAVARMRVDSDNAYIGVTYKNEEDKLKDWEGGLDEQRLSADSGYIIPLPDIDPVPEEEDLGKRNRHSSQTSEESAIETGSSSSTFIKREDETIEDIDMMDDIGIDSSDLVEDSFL
In short: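 Purified PDGFRα protein (20 ng) reacted with test compound per the Promega kinase system protocol. ADP formed was measured by ADP-Glo luminescence against a standard curve, giving IC50.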

MBP (myelin) in brain = experiment: Remyelination in chronically demyelinated mice (cuprizone model), MBP staining; assay type: in vivo, C57BL/6 mice; settings: for In vivo MBP Increases: MBP staining at day 10 after the first dose, blinded score
Description: The ability of newly constructed compounds (described in above Examples) to induce remyelination after demyelination in adult mice was tested using a cuprizone model. Cuprizone administration specifically induces the loss of myelin and oligodendrocytes. Mice were maintained on cuprizone chow to induce demyelination, the cuprizone was discontinues, and the compounds were administered. The animals were sacrificed 10 days after compound administration was initiated and their brains sections and stained for MBP, an important component of myelin.
The chow was stored at 4° C. until use.
Mice were allowed ad libitum access to cuprizone chow. […] The cuprizone diet was discontinued 24 hours before compound treatment was initiated.
To assess oligodendrocyte differentiation, the mice were euthanized and assessed at day 3 after the first dose. To assess MBP expression, the animals were euthanized and assessed at day 10 after the first dose.
For some compounds, MBP intensity, an intensity weighted positive pixel count, was measured using an algorithm developed in Visiopharm Software.

In vivo half-life = settings: comparison in words
[4] = Mus musculus, po, 24 h, read-out: GPR17 Fold Induction (Over Vehicle)
[5] = 11-point dose response, 10,000 nM to 0.169 nM, BLQ = below limit of quantitation, read-out: IC50 Values on PDGFRα Kinase Inhibition, IC50

SMILES | GPR17 Fold Induction (Over Vehicle; 3 μM) [1] | MBP Fold Induction (Over vehicle) [2] | IC50 (PDGFRα; [5]) | fold induction at 3 mg/kg [3, 4] | also measured
Cn1cc(-c2ccc3c(N4CCN(c5ncc(Cc6ccccc6)cn5)CC4)cnn3c2)cn1 [Compound 6, 3-[4-(5-benzylpyrimidin-2-yl)piperazin-1-yl]-6-(1-methyl-1H-pyrazol-4-yl)pyrazolo[1,5-a]pyridine] | 4.47 | 2.95 | 407 nM | – | GPR17 Fold Induction (Over Vehicle; 5 μM) [1]: 4.07; fold induction at 150 mg/kg [3, 4]: 18.7; IC50 (PDGFRα; 20 ng purified PDGFRα, Poly (Glu4Tyr1) substrate, two hours, 11-point dose response, read-out: IC50 Values on PDGFRα Kinase Inhibition): < 1000 nM; In vivo MBP Increases (MBP (myelin) in brain): +++++ (5 representing the level of myelination observed in naïve, healthy animals that had not undergone demyelination); MBP expression within the different regions of the brain (MBP (myelin) in brain; single dose, versus vehicle control): significant increase in MBP expression; Half-life (In vivo half-life): longer half-life
CN1CCC[C@@H]1CCO[C@](C)(c1ccccc1)c1ccc(Cl)cc1 [Clemastine, clemastine, reference compound] | – | – | – | – | In vivo GPR17+ cells, GPR17 Fold Induction (Over Vehicle) ([3]; adult female C57BL/6 mice, PO or IP, treatment period 1-3 days, entire brain, fold change over vehicle treated animals): 1.55; In vivo MBP Increases (MBP (myelin) in brain): + (given a score from 1 to 5)
C[C@@H](OC(=O)N1CCN(c2cnn3cc(-c4cnn(C)c4)ccc23)CC1)c1ccccn1 [Compound 260, (1R)-1-pyridin-2-ylethyl 4-[6-(1-methyl-1H-pyrazol-4-yl)pyrazolo[1,5-a]pyridin-3-yl]piperazine-1-carboxylate] | 6.26 | 11.66 | 377 nM | – | fold induction at 10 mg/kg [3, 4]: 2.79
CC[C@@H](OC(=O)N1CCN(c2cnn3cc(-c4cnn(C)c4)ccc23)CC1)c1ccccc1 [Compound 80, (1R)-1-(Phenyl)propyl 4-[6-(1-methyl-1H-pyrazol-4-yl)pyrazolo[1,5-a]pyridin-3-yl]piperazine-1-carboxylate] | 8.19 | 7.89 | 328 nM | 1.64 | –
Cn1cc(-c2ccc3c(N4CCN(C(=O)N5CCC[C@@H]5c5ccc(Cl)cc5)CC4)cnn3c2)cn1 [Compound 277, 3-(4-{[(2R)-2-(4-chlorophenyl)pyrrolidin-1-yl]carbonyl}piperazin-1-yl)-6-(1-methyl-1H-pyrazol-4-yl)pyrazolo[1,5-a]pyridine] | 5.36 | 8.37 | 208 nM | 0.96 | –
Cn1cc(-c2cc3c(N4CCN(c5ncc([C@@](C)(N)c6ccc(F)cc6)cn5)CC4)ncnn3c2)cn1 [Avapritinib, avapritinib, reference compound] | – | – | – | – | In vivo MBP Increases (MBP (myelin) in brain): ++++ (given a score from 1 to 5)
OCCn1cc(-c2ccc3c(N4CCN(c5ncc(Cc6ccccc6)cn5)CC4)cnn3c2)cn1 [Compound 55, 2-(4-{3-[4-(5-benzylpyrimidin-2-yl)piperazin-1-yl]pyrazolo[1,5-a]pyridin-6-yl}-1H-pyrazol-1-yl)ethanol] | 8.97 | 5.64 | 120 nM | 6.43 | –
C[C@@H](OC(=O)N1CCN(c2cnn3cc(-c4cnn(C)c4)ncc23)CC1)c1ccccc1 [Compound 49, (R)-1-phenylethyl 4-(6-(1-methyl-1H-pyrazol-4-yl)pyrazolo[1,5-a]pyrazin-3-yl)piperazine-1-carboxylate] | 9.99 | 2.45 | 59.5 nM | – | GPR17 Fold Induction (Over Vehicle; 5 μM) [1]: 4.42; fold induction at 3.3 mg/kg [3, 4]: 1.68
CCC(CC)Cc1cnc(N2CCN(c3cnn4cc(-c5cnn(C)c5)ccc34)CC2)nc1 [Compound 153, 3-(4-(5-(2-ethylbutyl)pyrimidin-2-yl)piperazin-1-yl)-6-(1-methyl-1H-pyrazol-4-yl)pyrazolo[1,5-a]pyridine] | 6.37 | 4.86 | 1370 nM | 1.58 | –
Cc1ccc([C@@H](C)OC(=O)N2CCN(c3cnn4cc(-c5cnn(C)c5)ccc34)CC2)cc1 [Compound 267, (1R)-1-(4-methylphenyl)ethyl 4-[6-(1-methyl-1H-pyrazol-4-yl)pyrazolo[1,5-a]pyridin-3-yl]piperazine-1-carboxylate] | 5.62 | 2.33 | – | 5.75 | fold induction at 6 mg/kg [3, 4]: 7.52; IC50 Values on PDGFRα Kinase Inhibition, IC50 (nM) (PDGFRα; 11-point dose response, 10,000 nM to 0.169 nM, BLQ = below limit of quantitation): BLQ
C[C@@H](OC(=O)N1CCN(c2cnn3cc(-c4cnn(C)c4)ccc23)CC1)c1ccc2ccccc2c1 [Compound 312, (1R)-1-(2-naphthyl)ethyl 4-[6-(1-methyl-1H-pyrazol-4-yl)pyrazolo[1,5-a]pyridin-3-yl]piperazine-1-carboxylate] | 9.00 | 18.49 | 145 nM | 1.53 | –

— patent publication US20250129067A1 (Progentos Therapeutics, Inc., priority 2021, published 2025)
